Source: PubChem BioAssay AID504844 (National Center for Advancing Translational Sciences (NCATS), 2011)

Tested on: mouse plasma stability, LC-MS/MS, 48 h
Experiment: Inhibitors of HPGD: Mouse Plasma Stability Profiling
Conditions: at 2 µM; hits give high values
Text: Human 15-Hydroxyprostaglandin dehydrogenase (HPGD) catalyzes the inactivation of prostaglandin E2, and plays a major role in cancer biology by antagonizing the oncogenic potential of cyclooxygenase type 2 (COX2). Follow-up assays are available, based on absorbance/fluorescence increase of NADH with the substrate 15-OH prostaglandin E2. Please see summary AID for more information on this project. After qHTS, hits were confirmed in follow-up assays, and leads were optimized through SAR. The resulting lead compound was further characterized through a battery ADME-Tox experiments, and this assay describes its stability in mouse plasma. NIH Chemical Genomics Center [NCGC] NIH Molecular Libraries Probe Centers Network [MLPCN] MLPCN Grant: MH084681-02 Assay Submitter (PI): Udo Oppermann, Structural Genomics Consortium
2microM of compound is incubated in mouse plasma, the reference compound is procaine. Compounds are incubated at 37 deg C for the pre-determined time periods and the when aliquots are removed. Samples are analyzed with LC-MS/MS.

| Compound | percent remaining [%] |
| --- | --- |
| Cc1cc(-c2nnc3n2CCCCC3)c(C)n1-c1ccccc1 | 98 |
| Cc1cccc(-n2cnc3cc(C(=O)N4CCCCC4)ccc32)c1 | 98 |
